Consider two molecules from patent US4798811A, “Combination preparation” (BASF Aktiengesellschaft, priority 1986, dated 1989).

In experiment [1] the test system is thrombocyte aggregation. Description: In vitro inhibition of thrombocyte aggregation induced by adrenalin and collagen in thrombocyte-rich plasma. It is filed as cell-based, test persons. The method, then: (§1) The following methods were used:
1. In vitro investigations
(§2) Venous blood was taken from four test persons and rendered unclottable by adding citrate, and thrombocyte-rich plasma was then obtained from this blood by centrifuging under 300 g for 10 minutes at 4° C. The addition of adrenalin (final concentration 5×10^-8 mole/liter) and collagen (final concentration 2×10^-3 g/liter) to the thrombocyte-rich plasma caused aggregation, which was measured as the change in extinction using a Born aggregometer MK 3. The maximum change in extinction per second was used as a measure of aggregation. The percentage inhibition of aggregation was determined by comparing the values before and after administration of the substance.

Experiment [2] deals with thrombocyte aggregation. Description: Ex vivo inhibition of thrombocyte aggregation after oral administration to five test persons. In kind it is in vivo. As to conditions: four hours after administration. As to the method:
as §1, §2
2. Ex vivo investigations
The candidate compounds were filled into stomach-soluble gelatine capsules and administered orally to five test persons. Venous blood was taken before administration of the substances and four hours after administration. This blood was prepared as under 1 and made to aggregate. The percentage inhibition of aggregation was determined by comparing the values before and after administration of the substance.

`COc1ccc(CCN(C)CCCC(C#N)(c2ccc(OC)c(OC)c2)C(C)C)cc1OC` (stereo not drawn) [Verapamil, 1,7-bis-(3,4-dimethoxyphenyl)-3-methylaza-7-cyano-8-methylnonane] returned an inhibition at 2 µg/mL in experiment [1] (Conc. 2 mg/l, adrenalin 5×10^-8 mole/liter and collagen 2×10^-3 g/liter) of 8.7%. Also, 10 µg/mL produced 31% inhibition in experiment [1] (Conc. 10 mg/l, adrenalin 5×10^-8 mole/liter and collagen 2×10^-3 g/liter). Besides, the “Aggregation inhibition (%)” value in experiment [2] (oral Dosage 240 mg) is on record as 33%.
For `CC(=O)Oc1ccccc1C(=O)O` [ASA, acetylsalicylic acid], at 1 µg/mL the inhibition in experiment [1] (Conc. 1 mg/l, adrenalin 5×10^-8 mole/liter and collagen 2×10^-3 g/liter) was 0%. Besides, the “aggregation inhibition (in words)” value in experiment [1] (dose of 1.0 mg/l) is listed as “ineffective”. In experiment [2] (oral Dosage 60 mg), the “Aggregation inhibition (%)” value was 0%.

A word on the inhibition: it is the relative decrease from the control value, in per cent. Higher therefore signals strong suppression.
